# Data: US20090176786A1, “Benzoylurea Compounds and Use Thereof” (priority 2005, published 2009)
# Key:
# Assay type in all cases: in vivo
# Plutella xylostella [1] = assay: Test Example 2: cabbage root immersion (systemic), dead pest rate of Plutella xylostella larvae; conditions: Plutella xylostella, 120 h; test concentration 25 ppm; root immersion 5 days; 10 second-instar larvae; after 5 days at 24° C.
# Experimental: In 0.25 mL of a mixture solution of Sorgen TW-20 (manufactured by Daiichi Industries Pharmaceuticals, Co., Ltd.) and acetone (mixture volume ratio; Sorgen TW-20:acetone=1:19), 2.5 mg of the present compound (1), (2), (3), (4), (7), (10), (11), (12), (16), (18), (19), (20), (21), (22), (25), (30), (36), (37), (41), (42), (52), (54), (56), (57), (60), (62), (105) or (109) was dissolved. The solution was diluted with ion-exchanged water so that the active ingredient concentration became to a predetermined concentration to prepare a pesticidal solution for test of the test compound. The root part of cabbages in the fourth leaf period were washed with tap water to remove soils, and then immersed in the pesticidal solution for test. After 5 days from immersion of the root part, the root part was removed, and the leaves and stems were put in a cup (volume; 180 mL). In the cup 10 second-instar larvae of Plutella xylostella were released, and the cup was stored at 24° C. After 5 days, the number of dead pests was counted, and the dead pest rate was calculated by the following equation:
# (§1) Dead pest rate(%)=(the number of dead pests/the number of tested pests)×100
# The test concentrations of the other present compounds were 25 ppm.
# Coptotermes formosanus = assay: Test Example 8: filter paper bait test, control rate of Coptotermes formosanus; conditions: filter paper bait treated with 1 mL of 10 mg/mL acetone solution; 20 ergates; 6 weeks in a dark place
# Experimental: A filter paper having a diameter of 33 mm (No. 1026 manufactured by Toyo Filter Paper, Co., Ltd.) was treated with acetone solution (1 mL) of 10 mg/mL of the present compounds (1) or (12) using a pipette, and dried at room temperature. Hereinafter, the resulting filter paper is referred to as a filter paper bait. 4% agarose was poured into a plastic petri dish having a diameter of 9 cm to make the thickness about 5 mm, and solidified by leaving at rest at room temperature. One circular hole having a diameter of 35 mm (hereinafter, referred to as a well) was made in the solidified agarose. One filter paper bait was put into the well. Then, after 20 ergates of Coptotermes formosanus were released in the above petri dish, the petri dish was capped, and sealed with a parafilm. After storing in a dark place for 6 weeks, the petri dish was opened. The control rate was calculated by observing the life and death of the Coptotermes formosanus in the petri dish.
# Plutella xylostella [2] = assay: Test Example 1: spray on cabbage, dead pest rate of Plutella xylostella larvae; conditions: Plutella xylostella, 120 h; 500 ppm spray solution, 20 ml/cup on cabbage; 5 second-instar larvae; after 5 days
# Experimental: Ten parts of the present compound (1), (2), (5) to (19), (21) to (34), (36) to (61), (63), (64), (68) to (71), (74), (76) to (78), (82) to (83), (89), (93), (94), (97), (99), (102) to (110), (111), (115), (116) (117) to (120) or (123) to (134); 35 parts of white carbon containing 50 parts of polyoxyethylene alkyl ether sulfate ammonium salt; and 55 parts of water were mixed, and finely ground by a wet grinding method to obtain a 10% flowable agent. The obtained flowable agent was diluted with water so that the active ingredient concentration became to 500 ppm to prepare a spray solution for test.
# Cabbages were planted in polyethylene cups, and grown until the third true leaf or the fourth true leaf was developed. The spray solution for test prepared above was sprayed at a rate of 20 ml/cup on the cabbages.
# After the pesticidal solution sprayed onto the cabbages was dried, 5 second-instar larvae of Plutella xylostella were put on the cabbages. After 5 days, the number of dead Plutella xylostella was examined, and a dead pest rate was calculated by the following equation:
# as §1
# Spondoptela litura = assay: Test Example 3: treated artificial diet (Insecta LF), dead pest rate of Spondoptela litura larvae; conditions: 144 h, 2 mL on Insecta LF diet, 5 fourth-instar larvae, after 6 days
# Description: Ten parts of the present compound (1) to (5), (7) to (13), (18) to (33), (35) to (49), (52) to (56), (58) to (61), (71), (73) to (77), (79), (80), (82), (83), (93), (94), (95), (96), (97), (100) to (109), (111), (112), (115), (117), (119), (121), or (123) to (133), 35 parts of white carbon containing 50 parts of polyoxyethylene alkyl ether sulfate ammonium salt, and 55 parts of water were mixed, and finely ground by a wet grinding method to obtain a preparation. The obtained preparation was diluted with water so that the active ingredient concentration became to 500 ppm to prepare a pesticidal solution for test. On the bottom of a polyethylene cup having a diameter of 5.5 cm, a filter paper having a diameter of 5.5 cm was placed, on which Insecta LF (Nippon Agriculture Industries, Co., Ltd.) sliced in a thickness of 6 mm and further cut half was laid, and to which 2 mL of the above-described pesticidal solution for test was added. After air-dried, 5 fourth-instar larvae of Spondoptela litura were released in the cup, and the cup was capped. After 6 days, the number of dead pests was counted, and the dead pest rate was calculated by the following equation:
# as §1
# Plutella xylostella [3] = assay: Test Example 7: cabbage root immersion, Plutella xylostella, against comparative compound D; conditions: 25 ppm; root immersion 5 days; 10 second-instar larvae; after 5 days at 24° C.
# Experimental: (§2) In 0.25 mL of a mixed solution of Tween-20 and acetone (mixture volume ratio: Tween-20:acetone=1:19), 2.5 mg of the present compound (94) or comparative compound D was dissolved. The solution was diluted with ion-exchanged water so that the active ingredient concentration became to the predetermined concentration (25 ppm) to prepare a pesticidal solution for test of the test compound. The root part of cabbages in the fourth leaf period was washed with tap water to remove soils, and then immersed in the pesticidal solution for test. After 5 days from immersion of the root part, the root part was removed, and the leaves and stems were put in a ice cream cup (volume; 180 mL). In the cup 10 second-instar larvae of Plutella xylostella were released, and the cup was stored at 24° C. After 5 days, the number of dead pests was countered, and the dead pest rate was calculated by the following equation:
# as §1
# Plutella xylostella [4] = assay: Test Example 5: cabbage root immersion, Plutella xylostella, against comparative compounds A and B; conditions: 25 ppm; root immersion 5 days; 10 second-instar larvae; after 5 days at 24° C.
# Experimental: as §2, with “(1), (4), (10), (82),” for “(94) or”, “A or B” for “D”, “a” for “a ice cream”
# as §1
smiles,measurement,setting,value
CN(C(=O)c1c(F)cccc1F)C(=O)N(C)c1ccc(SC(F)(F)F)cc1F [(10)],pest or weed control at 25 ppm,Plutella xylostella [1],100%
same,control rate,Coptotermes formosanus,65%
CN(C(=O)c1c(F)cccc1F)C(=O)N(C)c1ccc(SC(F)(F)C(F)F)cc1F [(12)],pest or weed control at 25 ppm,Plutella xylostella [1],100%
same,control rate,Coptotermes formosanus,60%
CN(C(=O)NC(=O)c1c(F)cccc1F)c1ccc(SC(F)(F)C(F)F)cc1 [(94)],pest or weed control at 500 ppm,Plutella xylostella [2],100%
same,pest or weed control at 500 ppm,Spondoptela litura,100%
same,dead pest rate,Plutella xylostella [3],100%
O=C(NC(=O)c1c(F)cccc1F)Nc1ccc(SC(F)(F)F)cc1F [comparative compound A],dead pest rate,Plutella xylostella [4],5%
